Reference: BindingDB's records for doi:10.1016/j.ejmech.2018.09.013 (Wuhan Institute of Technology, 2018)

Tests used:
[1] = Inhibition of HIV1 reverse transcriptase K103N/Y188C double mutant infected in human MT4 cells assessed as protection against virus-induced cytopathic effect by MTT assay
[2] = Inhibition of HIV1 reverse transcriptase Y181C mutant infected in human MT4 cells assessed as protection against virus-induced cytopathic effect by MTT assay
[3] = Inhibition of HIV1 reverse transcriptase K103N mutant infected in human MT4 cells assessed as protection against virus-induced cytopathic effect by MTT assay
[4] = Inhibition of HIV1 reverse transcriptase Y188L mutant infected in human MT4 cells assessed as protection against virus-induced cytopathic effect by MTT assay
[5] = Inhibition of HIV1 reverse transcriptase L100I/K103N double mutant infected in human MT4 cells assessed as protection against virus-induced cytopathic effect by MTT assay
[6] = Inhibition of HIV1 reverse transcriptase L100I mutant infected in human MT4 cells assessed as protection against virus-induced cytopathic effect by MTT assay
[7] = Inhibition of HIV1 LAI reverse transcriptase infected in human MT4 cells assessed as protection against virus-induced cytopathic effect by MTT assay
[8] = Inhibition of HIV1 reverse transcriptase Y181C mutant infected in human MT2 cells assessed as protection against virus-induced cytopathic effect by MTT assay
[9] = Inhibition of HIV1 reverse transcriptase K103N/Y181C double mutant infected in human MT2 cells assessed as protection against virus-induced cytopathic effect by MTT assay
[10] = Inhibition of HIV1 3B reverse transcriptase infected in human MT2 cells assessed as protection against virus-induced cytopathic effect by MTT assay
[11] = Inhibition of HIV1 reverse transcriptase K103N/Y188C double mutant infected in human MT4 cells assessed as protection against virus-induced cytopathic effect measured after 4 days by MTT assay
[12] = Inhibition of wild-type HIV1 3B reverse transcriptase infected in human MT4 cells assessed as protection against virus-induced cytopathic effect measured after 4 days by MTT assay
[13] = Inhibition of wild-type HIV1 3B reverse transcriptase infected in human MT4 cells assessed as protection against virus-induced cytopathic effect measured 5 days post infection by MTT assay
[14] = Inhibition of HIV1 reverse transcriptase E138K mutant infected in human MT4 cells assessed as protection against virus-induced cytopathic effect measured 5 days post infection by MTT assay
[15] = Inhibition of HIV1 reverse transcriptase K103N mutant infected in human MT4 cells assessed as protection against virus-induced cytopathic effect measured 5 days post infection by MTT assay
[16] = Inhibition of HIV1 reverse transcriptase K103N/Y188C double mutant infected in human MT4 cells assessed as protection against virus-induced cytopathic effect measured 5 days post infection by MTT assay
[17] = target: recombinant HIV1 reverse transcriptase Y188L mutant; assay: Inhibition of recombinant HIV1 reverse transcriptase Y188L mutant
[18] = Inhibition of wild-type HIV1 3B reverse transcriptase infected in human MT4 cells assessed as protection against virus-induced cytopathic effect
[19] = Inhibition of HIV1 RES056 reverse transcriptase K103N/Y181C double mutant infected in human MT4 cells assessed as protection against virus-induced cytopathic effect
[20] = Inhibition of wild-type HIV1 3B reverse transcriptase infected in human MT4 cells harboring GFP by scanning microscopic analysis
[21] = Inhibition of HIV1 reverse transcriptase Y181C mutant infected in human MT4 cells harboring GFP by scanning microscopic analysis
[22] = Inhibition of HIV1 reverse transcriptase K103N/Y181C double mutant infected in human MT4 cells harboring GFP by scanning microscopic analysis
[23] = Inhibition of HIV1 reverse transcriptase K103N mutant infected in human MT4 cells harboring GFP by scanning microscopic analysis
[24] = Inhibition of CXCR4 tropic HIV1 UG070 reverse transcriptase infected in human TZM-bl cells
[25] = Inhibition of CCR5 tropic HIV1 ADA5 reverse transcriptase infected in human TZM-bl cells
Reverse transcriptase = Reverse transcriptase (Human immunodeficiency virus 1, UniProt Q9WKE8); assay: Inhibition of CXCR4 tropic HIV1 3B reverse transcriptase infected in human TZM-bl cells
[26] = Inhibition of CCR5 tropic HIV1 VB59 reverse transcriptase infected in human TZM-bl cells

Row | SMILES | IC50 [1] [nM] | IC50 [2] [nM] | IC50 [3] [nM] | IC50 [4] [nM] | IC50 [5] [nM] | IC50 [6] [nM] | IC50 [7] [nM] | further results
1 | C=Cc1cnc(Nc2ccc(C#N)cc2)nc1Nc1c(C)cc(C)cc1C | 106 | 36 | 5.8 | 29 | > 100000 | 35 | 2.5 | –
2 | Cc1cc(C)c(Nc2cc(OCCCN3CCOCC3)nc(Nc3ccc(C#N)cc3)n2)c(C)c1 | – | – | – | – | – | – | – | EC50 [8]: 480 nM; EC50 [9]: 38 nM
3 | N#C/C=C/c1cc(F)c(Nc2nc(NCCCN3CCOCC3)nc(Nc3ccc(C#N)cc3)n2)c(F)c1 | – | – | – | – | – | – | – | EC50 [8]: 75 nM; EC50 [10]: 5.7 nM; EC50 [9]: 16 nM
4 | Cc1cc(C#N)cc(C)c1Nc1ccnc(Nc2ccc(C#N)cc2)n1 | 37 | 7.1 | 1.9 | 7.8 | 1090 | 34 | 0.4 | –
5 | N#Cc1ccc(Nc2nccc(Oc3ccc4ccccc4c3Br)n2)cc1 | – | – | – | – | – | – | – | EC50 [11]: 6570 nM; EC50 [12]: 2.4 nM
6 | Cc1cc(C#Cc2cccnc2)cc(C)c1Oc1ccnc(Nc2ccc(C#N)cc2)n1 | – | – | – | – | – | – | – | EC50 [13]: 3 nM; EC50 [14]: 22 nM; EC50 [15]: 10 nM; EC50 [16]: 935 nM
7 | C#Cc1cnc(Nc2ccc(C#N)cc2)nc1Nc1c(C)cc(C)cc1C | 42 | – | 6.2 | – | 71 | – | – | –
8 | Cc1cc(C)c(Nc2ccnc(Nc3ccc(C(N)=O)cc3)n2)c(C)c1 | – | – | – | – | – | – | – | IC50 [17]: < 10000 nM
9 | N#Cc1ccc(Nc2nccc(Oc3ccc4cc(C#N)ccc4c3Br)n2)cc1 | – | – | – | – | – | – | – | EC50 [11]: 240 nM; EC50 [12]: 2 nM
10 | N#Cc1ccc(Nc2nc(N)nc(Cc3c(Cl)cccc3Cl)n2)cc1 | – | 200 | 40 | 316 | – | 398 | 6 | –
11 | Cc1cc(C#N)cc(C)c1Nc1nc(Nc2ccc(C#N)cc2)ncc1Cl | 69 | 14 | 0.9 | 4.7 | 144 | 5.2 | 1.2 | –
12 | Cc1cc(C(C#N)c2ccccc2F)nc(Nc2ccc(C#N)cc2)n1 (configuration not stated) | – | – | – | – | – | – | – | EC50 [18]: 1.8 nM; EC50 [19]: > 217 nM
13 | Cc1cc(C#N)cc(C)c1Oc1nc(Nc2ccc(C#N)cc2)ncc1[N+](=O)[O-] | 194 | 304 | 10 | 782 | > 10000 | 121 | 18 | –
14 | N#Cc1ccc(Nc2cc(N)nc(Cc3c(Cl)cccc3Cl)n2)cc1 | – | > 100000 | > 100000 | > 100000 | – | > 100000 | 452 | –
15 | Cc1cc(C#N)cc(C)c1Oc1ccnc(Nc2ccc(C#N)cc2)n1 | 94 | 37 | 2.7 | 19 | 798 | 73 | 1.1 | –
16 | Cc1cc(C#N)cc(C)c1Nc1nc(Nc2ccc(C#N)cc2)ncc1Br | 32 | 9.6 | 0.4 | 3.3 | 37 | 7 | 0.4 | –
17 | Cc1cc(C#N)cc(C)c1Nc1nc(Nc2ccc(C#N)cc2)ncc1C#N | 181 | 76 | 2.6 | 8.6 | 312 | 91 | 0.5 | –

Row | SMILES | IC50 [1] [nM] | IC50 [2] [nM] | IC50 [3] [nM] | IC50 [4] [nM] | IC50 [5] [nM] | IC50 [6] [nM] | IC50 [7] [nM] | further results
18 | Cc1cc(/C=C/C#N)cc(C)c1Nc1nc(Nc2ccc(C#N)cc2)nc(OCCCN2CCOCC2)n1 | – | – | – | – | – | – | – | EC50 [8]: 12 nM; EC50 [9]: 1.3 nM
19 | N#C/C=C/c1ccc(Nc2cc(NCCCN3CCOCC3)nc(Nc3ccc(C#N)cc3)n2)cc1 | – | – | – | – | – | – | – | EC50 [20]: 20 nM; EC50 [21]: 87 nM; EC50 [22]: 98 nM; EC50 [23]: 219 nM
20 | Cc1cc(Br)cc(C)c1Sc1ccnc(Nc2ccc(C#N)cc2)n1 | 354 | 68 | 39 | 44 | 3890 | 174 | 5.7 | –
21 | N#C/C=C/c1ccc(Nc2nc(Nc3ccc(C#N)cc3)ncc2C(=O)NCCCN2CCCC2)cc1 | – | – | – | – | – | – | – | EC50 [20]: 0.794 nM; EC50 [21]: 20 nM; EC50 [22]: 16 nM; EC50 [23]: 1 nM
22 | N#C/C=C/c1ccc(Nc2cc(NCCc3ccc(S(N)(=O)=O)cc3)nc(Nc3ccc(C#N)cc3)n2)cc1 | – | – | – | – | – | – | – | EC50 [20]: 16 nM; EC50 [21]: 98 nM; EC50 [22]: 91 nM; EC50 [23]: 389 nM
23 | Cc1cc(C#CCCO)cc(C)c1Oc1ccnc(Nc2ccc(C#N)cc2)n1 | – | – | – | – | – | – | – | EC50 [13]: 3 nM
24 | Cc1cc(C)c(Nc2nc(N)nc(Nc3ccc(C#N)nc3)n2)c(C)c1 | – | – | – | – | – | – | – | IC50 [24]: 0.784 nM; IC50 [25]: 0.183 nM; IC50 (Reverse transcriptase): 0.131 nM; IC50 [26]: 0.183 nM
25 | Cc1cc(C)c(Nc2nc(Nc3ccc(C#N)cc3)ncc2-c2ccccc2)c(C)c1 | – | – | – | – | – | – | 24 | –
26 | N#Cc1ccc(Nc2cc(Cc3c(Cl)cccc3Cl)nc(N)n2)cc1 | – | > 100000 | 33300 | > 100000 | – | 96600 | 10 | –
27 | CCN(c1nc(Nc2ccc(C#N)cc2)nc(Oc2c(C)cc(C)cc2C)n1)N1CCOCC1 | – | – | – | – | – | – | – | EC50 [13]: 7.8 nM; EC50 [16]: 650 nM
28 | N#Cc1ccc(Nc2nc(N)cc(Cc3c(Cl)cccc3Cl)n2)cc1 | – | 175 | 12 | 71 | – | 299 | 1 | –
29 | Cc1cc(C)c(Nc2nc(Cl)nc(Nc3ccc(C#N)nc3)n2)c(C)c1 | – | – | – | – | – | – | – | IC50 [24]: 1.12 nM; IC50 [25]: 0.273 nM; IC50 (Reverse transcriptase): 0.124 nM; IC50 [26]: 0.497 nM
30 | Cc1cnc(Nc2ccc(C#N)cc2)nc1Nc1c(C)cc(C#N)cc1C | 162 | 12 | 1.7 | 16 | > 10000 | 16 | 0.8 | –
31 | CC(=O)Nc1cnc(Nc2ccc(C#N)cc2)nc1Oc1c(C)cc(C#N)cc1C | 30 | – | 3.3 | – | 205 | – | – | –
32 | Cc1cc(C#N)cc(C)c1Oc1nc(Nc2ccc(C#N)cc2)ncc1N | 14 | 9.3 | 1.3 | 5.7 | 282 | 16 | 1 | –
33 | CN(C)CCNC(=O)c1cnc(Nc2ccc(C#N)cc2)nc1Nc1ccc(/C=C/C#N)cc1 | – | – | – | – | – | – | – | EC50 [20]: 0.794 nM; EC50 [21]: 16 nM; EC50 [22]: 20 nM; EC50 [23]: 0.631 nM
